Consider two compounds from patent publication US11992497B2 (priority 2021, dated 2024).

Data set [1] relates to cryopreserved hepatocytes. Kind of data set: Hepatocyte stability and metabolite profiling. The data set is classed as in vitro ADME, minipig. As to conditions: minipig hepatocyte samples. The protocol: (§1) The objective of this study was to investigate the stability of the test compound, CBG, in human, rat, dog, mouse, monkey and minipig cryopreserved hepatocytes. Follow-on metabolite profiling was performed.
(§2) CBG was incubated up to 2 hr with cryopreserved hepatocytes. Cryopreserved hepatocytes in suspension were added to test compound in supplemented media following pre-incubation to initiate the reaction and the reactions were stopped by organic solvent at the appropriate time points. The termination plates were centrifuged and sample supernatants were analysed using Cyprotex generic LC MS/MS conditions to generate intrinsic clearance values for CBG. Two control compounds for each species were included in the assay and if the values for these compounds were not within the specified limits the results were rejected and the experiment repeated.
(§3) Following the hepatocyte stability assay the samples were 59tilized for metabolite profiling using suitable high-resolution LC-MS/MS conditions. The 40 and 60 minute human samples, 20 and 120 minute rat samples, 10 and 20 minute dog and monkey samples, 20 and 60 minute mouse samples, and 40 and 120 minute minipig samples were compared against the 0 minute control sample to establish which and how many metabolites were formed. […] No further analysis was carried out with the mouse species.
(§4) The areas and percentages reported for the parent and metabolites were calculated using the XIC data. Metabolite observed at greater than 1% of the total of drug related material are reported. […] For accuracy, a ppm error of less than 5 is desirable; when the response for a metabolite observed is low the ppm error maybe greater than 5. Where a metabolite has been referred to as a potential oxidation it can refer to a potential hydroxylation, epoxidation or oxide formation. Representative collision induced dissociation (CID) mass spectra were obtained for the metabolites found.

Data set [2] is described as follows: Hepatocyte stability and metabolite profiling. It counts as in vitro ADME, minipig. As to conditions: cryopreserved hepatocytes in suspension; Minipig cryopreserved hepatocytes. The protocol:
as §1, §2, §3, §4

A short description of data set [3]: Metabolic stability in human intestine microsomes (UDPGA, UGT activity only). To be noted: human, pooled intestinal microsomes, pH 7.4, 1 μM, 0.5 mg/mL microsomes + alamethicin, UDPGA. It counts as in vitro ADME. The protocol:
(§5) The objective of this study was to investigate the stability of the test compound, CBG, in the presence of intestinal microsomes that only have UGT activity and no CYP activity.
(§6) Test compound (1 μM) was incubated with pooled intestinal microsomes at 6 time points over the course of a 60 min assay and the test compound is analyzed by LC-MS/MS.
(§7) The final incubation volume is 500 μL. A minus cofactor control incubation was included for each compound tested where 0.1 M Tris, 5 mM MgCl2 buffer pH 7.4 is added instead of UDPGA (minus UDPGA). Two control compounds were included. All incubations were performed singularly for each test compound.
(§8) Each compound was incubated for 0, 5, 10, 20, 40 and 60 min. The control (minus UDPGA) was incubated for 60 min only. The reactions were stopped by transferring incubate into acetonitrile at the appropriate time points, in a 1:3 ratio. The termination plates were centrifuged at 3,000 rpm for 20 min at 4° C. to precipitate the protein.
(§9) Following protein precipitation, the sample supernatants were combined in cassettes of up to 4 compounds, internal standard was added and samples analysed using Cyprotex generic LC-MS/MS conditions.
(§10) From a plot of ln peak area ratio (compound peak area/internal standard peak area) against time, the gradient of the line was determined. Subsequently, half-life and intrinsic clearance were calculated using the equations below: […]

In data set [4] the test system is human intestine microsomes. Described as above. It counts as in vitro ADME. On the procedure:
as §5, §6, §7, §8, §9, §10

The subject of data set [5] is p-cMyc(S62), cMyc, p-AKT(S473), AKT, p-ERK(T202/Y204), ERK. Kind of data set: Target engagement Western blot in HCT116 cells. It counts as cell-based. As to conditions: 10-80 μM, 3 hours. On the procedure:
For Western blot, the compounds were tested at 4 concentrations for 3 hours on 3 colon cancer cell lines. The compounds, concentrations, colon cancer cell line panel, and antibodies panel tested are the following: • CBG: 0 μM, 10 μM, 20 μM, 40 μM, and 80 μM. • Compound 1: 0 μM, 10 μM, 20 μM, 40 μM, and 80 μM. • Compound 2: 0 μM, 10 μM, 20 μM, 40 μM, and 80 μM. • Colon cancer cell line panel: SW620, HCT15, HCT116 • Antibodies panel: p-cMYC(S62), cMyc, p-AKT(S473), AKT, p-ERK(T202/Y204), ERK Methods
Evaluation of target engagement was performed to determine the expression of specific marker protein expression and underlying signaling pathways with Western blot.
Western blot. Whole cell extracts were prepared by incubating cell pellets in IP lysis buffer supplemented with protease and phosphatase inhibitors (Roche). Isolated protein was quantified by Pierce BCA Protein assay (ThermoFisher). Equal quantities of protein were separated by 4-15% SDS-PAGE electrophoresis gels and transferred onto nitrocellulose membranes. Membranes was blocked with 5% nonfat milk in Tris-buffered saline-Tween buffer. […]

Take `CCCCCc1cc(O)c(C/C=C(\C)CCC=C(C)C)c(O)c1` [CBG, cannabigerol]: in data set [1], the “number of metabolites observed” value is reported as “four”. Besides, in data set [2], the half-life is 42.7 min and the hepatocyte CLint worked out at 32.5 µL/min/1e6 cells. Besides, in data set [3], the half-life at 1 µM turned out to be 1.57 min. For the same compound, the microsomal CLint at 1 µM in data set [3] (from 0 and 5 minute time points only) came to 884 µL/min/mg. Besides, the “appearance of CBG-glucoronide (in words)” value in data set [4] (CBG incubated with human intestine microsomes) is “appeared rapidly”. Besides, in data set [4] (by 10 minutes), the “Comments: detectability of test compound” value is listed as “Test compound not detectable”. In addition, the “disappearance of parent compound (in words)” value in data set [4] (incubated with human intestine microsomes) is recorded as “disappeared rapidly”.

Take `CCCCCc1cc(O)c(C/C=C(\C)CCC=C(C)C)c(OC)c1` [Compound 1, (E)-2-(3,7-dimethylocta-2,6-dien-1-yl)-3-methoxy-5-pentylphenol]: the “pAKT(S473) (Western blot)” value in data set [5] is recorded as “down-regulated pAKT(S473) in HCT116 cells with a dose effect”.
